Values quoted from earlier work in US20060172006A1, “Sustained-release tramadol formulations with 24-hour clinical efficacy” (priority 2003, published 2006).
Counter-ions that a name gives are not always drawn.

Conditions: human, in vivo

## COc1cccc(C2(O)CCCCC2CN(C)C)c1 (stereo not shown) [tramadol HCl, Tramadol hydrochloride]
  Estimated incidence of seizures in patients: less than 1%
